How the values were obtained:
[1] = test system: sulfate reducing bacteria (SRB); assay: microbiological kill study in field water (bottle growth test), sulfate reducing bacteria; format: cell-based; settings: field water from a well in Texas; active biocide 94 to 500 ppm tested
Method: (§1) Microbiological studies were carried out with the formulation of Example 1 and compared to tests with other known biocides. The field water used for testing came from a well in Texas. The biocides were tested at varying concentrations of the active biocide in the field water at active biocide concentrations from 94 parts per million (ppm) to 500 ppm. The biocide of Example 1 was tested along with several known biocides.
(§2) Microbiological kill studies were carried out in field waters considered to be problematic.
(§3) A field water sample was used to dilute the formulation and growth media was added. […] For the SRB concentrations up to 150 ppm PCMX were studied. […] For the APB samples, concentrations of up to 100 ppm PCMX were studied. […] The diluted sample was also tested after the sample had experienced four freeze/thaw cycles and the sample with growth media added was tested with PCMX concentrations up to 100 ppm PCMX.
(§4) For the 42 ppm hydrogen sulfide concentration water, testing was carried out with PCMX concentrations up to 100 ppm. […] For the 24 ppm hydrogen sulfide concentration water, testing was carried out with PCMX concentrations up to 125 ppm.

[2] = test system: acid producing bacteria (APB); assay: microbiological kill study in field water (bottle growth test), acid producing bacteria; format: cell-based; settings: field water from a well in Texas; active biocide 94 to 500 ppm tested
Method: as §1, §2, §3, §4

[3] = cited from earlier work

Compound | active biocide concentration with complete kill of SRB [1] [ppm] | active biocide concentration with complete kill of APB [2] [ppm] | hydrolysis half life [3] [h]
N#CC(Br)(Br)C(N)=O [DBNPA, dibromocyanoacetamide] | 20 | 20 | 
CN1CSC(=S)N(C)C1 [Dazomet] | > 270 | > 270 | 3.6
O=CCCCC=O [glutaraldehyde] | 250 | 250 | 
tetrakis hydroxylmethyl phosphonium sulfate [THPS] | 150 | 150 | 

— patent publication US20130029884A1, “BIOCIDE FORMULATIONS” (ENVIROSYSTEMS, INC., priority 2011, published 2013)
